Data published in patent publication US20240317721A1, “PYRAZOLYL DERIVATIVES AS INHIBITORS OF THE KRAS MUTANT PROTEIN” (NOVARTIS AG, priority 2021, published 2024).

Molecular target: KRasG12C (M1-K169, biotinylated on the N-terminus) (Homo sapiens (Human), UniProt P01116, G12C)
Experiment: Covalent competition assay: scintillation proximity assay (SPA) quantifying covalent modification of KRASG12C
Format: binding
Conditions: competition with radiolabeled covalent probe (Compound B/Compound A), 2 hours incubation, 10 nM KRasG12C
How it was run: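 Scintillation proximity readout after streptavidin bead capture (30 min) of biotinylated KRasG12C(M1-K169):GDP, 10 nM final, which was covalently labelled over 2 h by 25 nM radio-probe plus 475 nM cold probe unless blocked by compound.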

| Structure (SMILES) | IC50 [nM] |
| --- | --- |
| C=CC(=O)N1CC2(CC(n3nc(N4CCN(C(C)=O)CC4(C)C)c(-c4c(Cl)c(C)cc5[nH]ncc45)c3C)C2)C1 (single isomer, unassigned) [Example 18b, 1-(6-(3-(4-acetyl-2,2-dimethylpiperazin-1-yl)-4-(5-chloro-6-methyl-1H-indazol-4-yl)-5-methyl-1H-pyrazol-1-yl)-2-azaspiro[3.3]heptan-2-yl)prop-2-en-1-one] | 31 |
| Cc1cc2[nH]ncc2c(-c2c(N3CCN(C4COC4)CC34CCC4)nn(C3CC4(C3)CN(C(=O)/C=C/CF)C4)c2C)c1Cl (single isomer, unassigned) [Example 113b, (E)-1-(6-(4-(5-chloro-6-methyl-1H-indazol-4-yl)-5-methyl-3-(8-(oxetan-3-yl)-5,8-diazaspiro[3.5]nonan-5-yl)-1H-pyrazol-1-yl)-2-azaspiro[3.3]heptan-2-yl)-4-fluorobut-2-en-1-one] | 105 |
| C=CC(=O)N1CC2(CC(n3nc(N4CCN(C5COC5)CC45CCC5)c(-c4c(C)c(Cl)cc5[nH]ncc45)c3C)C2)C1 (single isomer, unassigned) [Example 79b, 1-(6-(4-(6-chloro-5-methyl-1H-indazol-4-yl)-5-methyl-3-(8-(oxetan-3-yl)-5,8-diazaspiro[3.5]nonan-5-yl)-1H-pyrazol-1-yl)-2-azaspiro[3.3]heptan-2-yl)prop-2-en-1-one] | 18 |
| C=CC(=O)N1CC2(CCC(n3nc(N4CCN(C(C)=O)CC4)c(-c4c(Cl)ccc5[nH]ncc45)c3C)C2)C1 (single isomer, unassigned) [Example 53d, 1-(6-(3-(4-acetylpiperazin-1-yl)-4-(5-chloro-1H-indazol-4-yl)-5-methyl-1H-pyrazol-1-yl)-2-azaspiro[3.4]octan-2-yl)prop-2-en-1-one] | 9030 |
| C=CC(=O)N1CC2(CC(n3nc(N4CCN(CCOC)C[C@]4(C)C(F)F)c(-c4c(Cl)c(C)cc5[nH]ncc45)c3C)C2)C1 (single isomer, unassigned) [Example 178a] | 3900 |
| C=CC(=O)N1CC2(CC(n3nc(N4CCC(C(=O)N(C)C)CC4(C)C)c(-c4c(Cl)c(C)cc5[nH]ncc45)c3C)C2)C1 (stereo not shown) [Example 99b, 1-(1-(2-acryloyl-2-azaspiro[3.3]heptan-6-yl)-4-(5-chloro-6-methyl-1H-indazol-4-yl)-5-methyl-1H-pyrazol-3-yl)-N,N,2,2-tetramethylpiperidine-4-carboxamide] | > 5000 |
| C=CC(=O)N1CC2(CC(n3nc(N4CCN(C5CCOCC5)C[C@]4(C)COC)c(-c4c(Cl)c(C)cc5[nH]nc(N)c45)c3C)C2)C1 (single isomer, unassigned) [Example 90a] | 23 |
| C=CC(=O)N1CC2(CC(n3nc(N4CCN(C5COC5)C[C@@]4(C)CC)c(-c4c(Cl)c(C)cc5[nH]ncc45)c3C)C2)C1 (single isomer, unassigned) [Example 143b] | 39 |
| C=CC(=O)N1CC2(CC(n3nc(N4CCN(C5(C)COC5)CC45CCC5)c(-c4c(Cl)c(C)cc5[nH]ncc45)c3C)C2)C1 (single isomer, unassigned) [Example 191b, 1-(6-(4-(5-Chloro-6-methyl-1H-indazol-4-yl)-5-methyl-3-(8-(3-methyloxetan-3-yl)-5,8-diazaspiro[3.5]nonan-5-yl)-1H-pyrazol-1-yl)-2-azaspiro[3.3]heptan-2-yl)prop-2-en-1-one] | 14 |
| C=CC(=O)N1CC2(CC(n3nc(N4CCN(CC(C)(C)O)CC45CCC5)c(-c4c(OC)c(Cl)cc5[nH]ncc45)c3C)C2)C1 [Example 168, 1-(6-(4-(6-chloro-5-methoxy-1H-indazol-4-yl)-3-(8-(2-hydroxy-2-methylpropyl)-5,8-diazaspiro[3.5]nonan-5-yl)-5-methyl-1H-pyrazol-1-yl)-2-azaspiro[3.3]heptan-2-yl)prop-2-en-1-one] | 302 |
| C=CC(=O)N1CC2(CC(n3nc(N4CCN(C[C@@H]5COCCO5)C[C@]4(C)COC)c(-c4c(Cl)c(C)cc5[nH]ncc45)c3C)C2)C1 (single isomer, unassigned) [Example 181b] | 8 |
| C=CC(=O)N1CC2(CC(n3nc(N4C[C@H](C)N(C5COC5)CC4(C)C)c(-c4c(Cl)c(Cl)cc5[nH]ncc45)c3C)C2)C1 (single isomer, unassigned) [Example 104b] | 27 |
| C=CC(=O)N1CC2(CC(n3nc(N4CC5(CCOC5)C4)c(-c4c(Cl)c(Cl)cc5[nH]ncc45)c3C)C2)C1 (single isomer, unassigned) [Example 108b, 1-(6-(4-(5,6-dichloro-1H-indazol-4-yl)-5-methyl-3-(6-oxa-2-azaspiro[3.4]octan-2-yl)-1H-pyrazol-1-yl)-2-azaspiro[3.3]heptan-2-yl)prop-2-en-1-one] | 576 |
| C=CC(=O)N1CC2(CC(n3nc(N4CCC(C)(O)CC4(C)C)c(-c4c(Cl)c(C)cc5[nH]ncc45)c3C)C2)C1 (single isomer, unassigned) [Example 28b, 1-(6-(4-(5-chloro-6-methyl-1H-indazol-4-yl)-3-(4-hydroxy-2,2,4-trimethylpiperidin-1-yl)-5-methyl-1H-pyrazol-1-yl)-2-azaspiro[3.3]heptan-2-yl)prop-2-en-1-one] | 1300 |
| CC#CC(=O)N1CC2(CC(n3nc(N4CCN(C5COC5)CC45CCC5)c(-c4c(Cl)c(C)cc5[nH]ncc45)c3C)C2)C1 (single isomer, unassigned) [Example 78b, 1-(6-(4-(5-chloro-6-methyl-1H-indazol-4-yl)-5-methyl-3-(8-(oxetan-3-yl)-5,8-diazaspiro[3.5]nonan-5-yl)-1H-pyrazol-1-yl)-2-azaspiro[3.3]heptan-2-yl)but-2-yn-1-one] | > 5000 |
| C=C(F)C(=O)N1CC2(CC(n3nc(N4CCN(C[C@@H]5COCCO5)C[C@]4(C)CC)c(-c4c(Cl)c(C)cc5[nH]ncc45)c3C)C2)C1 (single isomer, unassigned) [Example 174a] | > 5000 |

Further lines, results first:

| IC50 [nM] | Structure (SMILES) |
| --- | --- |
| 1100 | C=CC(=O)N1CC2(CC(n3nc(N4CCC(N5CC(OC)C5)CC4(C)C)c(-c4c(Cl)c(Cl)cc5[nH]ncc45)c3C)C2)C1 (single isomer, unassigned) [Example 209a, 1-(6-(4-(5,6-dichloro-1H-indazol-4-yl)-3-(4-(3-methoxyazetidin-1-yl)-2,2-dimethylpiperidin-1-yl)-5-methyl-1H-pyrazol-1-yl)-2-azaspiro[3.3]heptan-2-yl)prop-2-en-1-one] |
| 4000 | C=CC(=O)N1CC2(CC(n3nc(N4CC[C@@H](CN5CC6(O)CC5C6)CC4(C)C)c(-c4c(Cl)c(Cl)cc5[nH]ncc45)c3C)C2)C1 (single isomer, unassigned) [Example 293a] |
| 8 | C=CC(=O)N1CC2(CC(n3nc(N4CC[C@@H](CN5CC(O)C(OC)C5)CC4(C)C)c(-c4c(Cl)c(Cl)cc5[nH]ncc45)c3C)C2)C1 (single isomer, unassigned) [Example 274b, 1-(6-(4-(5,6-dichloro-1H-indazol-4-yl)-3-((R)-4-(((3S*,4S*)-3-hydroxy-4-methoxypyrrolidin-1-yl)methyl)-2,2-dimethylpiperidin-1-yl)-5-methyl-1H-pyrazol-1-yl)-2-azaspiro[3.3]heptan-2-yl)prop-2-en-1-one] |
| 19 | C=CC(=O)N1CC2(CC(n3nc(N4CCN(c5nccn5C)C[C@]4(C)CC)c(-c4c(Cl)c(C)cc5[nH]ncc45)c3C)C2)C1 (single isomer, unassigned) [Example 194a] |
| 679 | C=CC(=O)N1CC2(CC(n3nc(N4CC[C@H](CN5CCOCC5)CC4(C)C)c(-c4c(Cl)c(Cl)cc5[nH]ncc45)c3C)C2)C1 (single isomer, unassigned) [Example 214b] |
| 8 | C=CC(=O)N1CC2(CC(n3nc(N4CC[C@@H](CN5CC6C5CCN6C5COC5)CC4(C)C)c(-c4c(Cl)c(Cl)cc5[nH]ncc45)c3C)C2)C1 (single isomer, unassigned) [Example 278b, 1-(6-(4-(5,6-dichloro-1H-indazol-4-yl)-3-((R)-2,2-dimethyl-4-(((1S*,5S*)-2-(oxetan-3-yl)-2,6-diazabicyclo[3.2.0]heptan-6-yl)methyl)piperidin-1-yl)-5-methyl-1H-pyrazol-1-yl)-2-azaspiro[3.3]heptan-2-yl)prop-2-en-1-one] |
| 7 | C=CC(=O)N1CC2(CC(n3nc(N4CC[C@@H](CN(C5COC5)C5COC5)CC4(C)C)c(-c4c(Cl)c(Cl)cc5[nH]ncc45)c3C)C2)C1 (single isomer, unassigned) [Example 282b] |
| 9 | C=CC(=O)N1CC2(CC(n3nc(N4CCC(CN5CCN(C)C(=O)C5)CC4(C)C)c(-c4c(Cl)c(Cl)cc5[nH]ncc45)c3C)C2)C1 (single isomer, unassigned) [Example 239b, 4-((1-(1-(2-acryloyl-2-azaspiro[3.3]heptan-6-yl)-4-(5,6-dichloro-1H-indazol-4-yl)-5-methyl-1H-pyrazol-3-yl)-2,2-dimethylpiperidin-4-yl)methyl)-1-methylpiperazin-2-one] |
| 15 | C=CC(=O)N1CC2(CC(n3nc(N4CC[C@@H](CN5CCN(C6COC6)CC5)CC4(C)C)c(-c4c(Cl)c(C)cc5[nH]ncc45)c3C)C2)C1 (single isomer, unassigned) [Example 246b] |
| 3800 | C=CC(=O)N1CC2(CC(n3nc(N4CC[C@@H](CN5CCN6CCOC[C@@H]6C5)CC4(C)C)c(-c4c(Cl)c(Cl)cc5[nH]ncc45)c3C)C2)C1 (single isomer, unassigned) [Example 279a] |
| 1900 | C=CC(=O)N1CC2(CC(n3nc(N4CC[C@@H](CN5CCOC[C@@H](O)C5)CC4(C)C)c(-c4c(Cl)c(Cl)cc5[nH]ncc45)c3C)C2)C1 (single isomer, unassigned) [Example 292a] |
| > 5000 | C=CC(=O)N1CC2(CC(n3nc(N4CCN(c5ccnnc5)C[C@]4(C)CC)c(-c4c(Cl)c(C)cc5[nH]ncc45)c3C)C2)C1 (single isomer, unassigned) [Example 192a] |
